Reference: patent publication US11224667B2, “11C-labeled catechol derivative, pet probe of phosphorylated tau aggregation inhibitor using the same, and production method of the same” (NATIONAL CENTER FOR GERIATRICS AND GERONTOLOGY, priority 2017, dated 2022)

Legend:
tau protein = details: cited from earlier work
[1] = system: hyperphosphorylated tau-expressing mice; details: administered to hyperphosphorylated tau-expressing mice; cited from earlier work
[2] = Stability of isolated [11C]isoproterenol solution, radiochemical purity by HPLC; assay type: physicochemical
Protocol: Radiochemical purity and chemical purity of [2-^11C] isoproterenol in the solution after HPLC fractionation were analyzed by HPLC (CH3CN/acetic acid-ammonium acetate (pH 5.3), 10:90; column, CAPCELL PAK SCX UG 80, 4.6 (id)×150 mm; flow rate, 1 mL/min; UV detection, 278 nm; retention time, 6.5 min). [^11C] isoproterenol was confirmed by co-injection of unlabeled isoproterenol in HPLC. In the absence of addition of tartaric acid, the radiochemical purity immediately after isolation was 96%, whereas the radiochemical purity after 60 minutes dropped to 84% (see FIG. 3). […] This is presumed to be due to inhibition of deprotonation of two adjacent phenolic hydroxyl groups present in the catechol nucleus under acidic conditions and suppression of subsequent oxidative decomposition by oxygen molecules or superoxide. Also, the chemical purity measured at the above wavelength was >93%

SMILES: CC(C)NCC(O)c1ccc(O)c(O)c1 [D/L-isoproterenol]
- inhibition of aggregation of tau protein (tau protein): particularly strongly suppresses aggregation of tau protein
- abnormal behavior [1]: improvement of abnormal behavior
- aggregation of tau protein [1]: suppression of aggregation of tau protein
- nerve cell dropout [1]: suppression of nerve cell dropout

SMILES: CC(C)NCC(O)c1ccc(O)c(O)c1 (stereo not drawn) [[^11C] isoproterenol, [2-^11C] isoproterenol]
- radiochemical purity after 60 minutes ([2]; solution after HPLC fractionation, absence of addition of tartaric acid, 60 minutes after isolation): 84%
- radiochemical purity immediately after isolation ([2]; solution after HPLC fractionation, absence of addition of tartaric acid, immediately after isolation): 96%
- drop in radiochemical purity after 60 minutes ([2]; tartaric acid added, 60 minutes after isolation): no drop in radiochemical purity was observed

SMILES: CNCC(O)c1ccc(O)c(O)c1 (stereo not drawn) [adrenaline]
- inhibition of aggregation of tau protein (tau protein): inhibited aggregation of tau protein

SMILES: NCCc1ccc(O)c(O)c1 [dopamine]
- inhibition of aggregation of tau protein (tau protein): inhibited aggregation of tau protein
